Reference: patent US7807462B2, “Method for producing a functional neuron” (University of Medicine and Dentistry of New Jersey, priority 2004, dated 2010)

Tests used:
[1] = test system: PPT-I gene expression in retinoic acid-treated MSC; test: In situ hybridization for β-PPT-I in RA-treated MSC; assay type: cell-based, human; conditions: cocktail of three antisense oligomers; three bone marrow donors
Procedure: Thus, it was determined whether the PPT-I gene was expressed in retinoic acid-treated MSC by in situ hybridization with a cocktail of three oligomers.
MSC were cultured as above on superfrost slides and then washed with 0.05% PBT. Cells were hybridized by incubation with 500 μL of hybridization buffer (Sigma, St. Louis, Mo.). After 2 hours, slides were incubated with 200 μL of hybridization buffer containing a cocktail (200 ng/mL) of denatured biotin-conjugated β-PPT-1-specific oligo probes based on GENBANK Accession No. U37529 (Table 1). Control slides were incubated with a mixture of similar oligos in the sense orientations. Slides were subsequently incubated overnight at 37° C. in a humid chamber. Slides were washed with SSC solution and hybrids detected by incubation for 1 hour at room temperature with FITC-streptavidin at 1/500 dilution. Slides were covered with PBS and immediately examined with an immunofluorescence microscope.

[2] = test system: MSC treated with retinoic acid for 6 days (functional neurons); test: Immunofluorescence/immunohistochemistry for substance P (SP) in RA-treated MSC; assay type: cell-based, human
Procedure: Administration or implantation of cultured neurons in a damaged tissue, in vivo, is influenced by the microenvironment. Thus, to determine whether a functional neuron could be influenced to express a particular neurotransmitter, expression of the preprotachykinin-I gene (PPT-I), which encodes the neurotransmitter substance P (SP), was analyzed. Regulation of the PPT-I gene has been studied in the context of inflammatory mediators that are presumed to be at the site of neural injury. […] Furthermore the receptor for IL-1 has been reported in neurons (Coti, et al. (2004) Frontier Biosci. 9:1433-1449). MSC, treated with retinoic acid for 6 days, were stimulated with 10 ng/mL of IL-1α for 16 hours and the cells studied for SP production by immunofluorescence using anti-SP. Treated cells were also labeled for synaptovesicle 2 to determine if SP is stored in synaptic vesicle. […] Retinoic acid-treated MSC were labeled with anti-SP and anti-synaptovesicle. The two labels were overlaid to gain insight as to the location of SP. […]
MSC on superfrost slides were treated with RA. […] The latter determined whether SP was stored in synaptic vesicles. SP and anti-synaptic vesicle protein 2 were detected with anti-rabbit IgG FITC and anti-mouse IgG1 κ PE, respectively. […]

[3] = test system: adult human mesenchymal stem cells (MSC); test: Whole-cell patch clamp electrophysiological recordings of RA-treated MSC; conditions: for postsynaptic current amplitude / postsynaptic current decay time / postsynaptic current frequency / postsynaptic current half rise time: voltage clamp
[4] = test system: adult human mesenchymal stem cells (MSC); test: Immunofluorescence for neural-specific markers in RA-treated MSC; assay type: cell-based
Procedure: It was subsequently determined whether the retinoic acid-treated MSC express neuron-specific proteins. Cells were labeled for MAP2, which predominantly labels the cell bodies and dendrites; Neurofilament to stain for cell bodies and axons; and nestin for changes in morphology to neuronal cells. Synaptophysin was also analyzed as it is an indicator of synaptic regions. Labeling with anti-MAP2 and anti-synaptophysin were performed at different times following retinoic acid treatment. Untreated MSCs stained dim with MAP2, but negative for synaptophysin. In contrast, retinoic acid-treated cells stained bright for MAP2 at each time point, i.e., day 6, day 9 and day 12 retinoic acid treatment. […] This pattern of synaptophysin increased up to day 12 of treatment. Patterns were similar in ten different experiments, each with MSC from a different bone marrow donor.
RA-treated MSCs were washed with PBS (pH 7.4) and incubated for 1 hour at room temperature with the following antibodies: rabbit anti-MAP2 and/or synaptophysin monoclonal antibody at final concentrations of 1/500 and 1/200 respectively. In other labeling studies, cells were incubated with anti-GFAP, anti-neurofilament or anti-nestin, each at 1/500 final concentration. Antibodies were diluted in 0.05% TWEEN™/PBS (PBT) for membrane permeabilization. Primary antibodies were developed with secondary FITC-goat anti-rabbit IgG and PE-rat anti-mouse κ, both at final concentrations of 1/500. Secondary antibodies were incubated for 45 minutes at room temperature in the dark. After labeling, cells were fixed with 0.4% paraformaldehyde and then covered with VECTASHIELD®. Slides were immediately examined on a 3-color immunofluorescence microscope (NIKON® Instruments Inc., Melvelle, N.Y.).

[5] = test system: adult human mesenchymal stem cells (MSC); test: Microscopic examination of morphology of retinoic acid-treated MSC; assay type: cell-based; conditions: RA 30 μM
Procedure: By way of illustration, MSC were treated with all-trans-retinoic acid and examined microscopically at 400× magnification. The purpose was to observe morphological changes as the cells were exposed to a known differentiating agent.

[6] = functional neurons in culture for 6 days

CC1=C(/C=C/C(C)=C/C=C/C(C)=C/C(=O)O)C(C)(C)CCC1 [retinoic acid, All-trans-retinoic acid]
PPT-I in situ hybridization fluorescence in cell bodies of neurons [1]: bright fluorescence | fluorescence for SP in unstimulated treated MSC ([2]; no IL-1α stimulation): dim fluorescence | resting membrane potential ([3]; current clamp): −50 mV | spontaneous action potential firing frequency ([3]; current clamp): 20 s⁻¹ | action potential amplitude ([3]; current clamp, measured from resting membrane potential): 63.4±17.4 mV | action potential half-width ([3]; current clamp, n=768 events): 19.25 ± 0.73 ms | action potential rise time ([3]; current clamp, n=768 events): 3.39 ± 0.11 ms | fit of decay of postsynaptic currents [3, 6]: single exponential function | half rise time of some spontaneous post-synaptic currents [3, 6]: around 2 ms | fit of decay of postsynaptic currents ([3]; functional neurons in culture for 15 days): two exponentials | treated cells showing action potential by electrophysiology ([3]; n=25): one hundred | postsynaptic current amplitude ([3]; first set, n=171 events): 29.9±1.3 pA | postsynaptic current decay time ([3]; first set, n=171 events): 36.5 ± 1.0 ms | postsynaptic current frequency ([3]; first set, n=171 events): 2.49 s⁻¹ | postsynaptic current half rise time ([3]; first set, n=171 events): 12.96 ± 0.89 ms | postsynaptic current amplitude ([3]; second set, n=99 events): 6.1±0.2 pA | postsynaptic current decay time ([3]; second set, n=99 events): 31.3 ± 1.3 ms | postsynaptic current frequency ([3]; second set, n=99 events): 1.24 s⁻¹ | postsynaptic current half rise time ([3]; second set, n=99 events): 1.84 ± 0.13 ms | synaptophysin fluorescence ([4]; 6-day treatment): slight fluorescence | glial fibrillary acidic protein (GFAP) staining ([4]; all treated cells): negative | synaptophysin fluorescence ([4]; day 9 of treatment): brighter fluorescence | MAP2 staining ([4]; each time point: day 6, day 9 and day 12 of treatment, ten experiments): bright | percentage of functional neurons developed, by immunostaining for neurofilament, MAP2 and nestin ([4]; n=100): 80±10 percentage | synaptophysin fluorescence ([4]; up to day 12 of treatment): increased | morphology of treated MSC ([5]; day 4): neuron-like structures | morphology of treated MSC ([5]; day 7): cell bodies with long thin processes and growth cones | morphology of treated MSC ([5]; treated 1 day, 400× magnification): asymmetrical morphology

B1: IL-1α: Recombinant human IL-1α (rhIL-1α) provided by Hoffman LaRoche (protein, UniProt P01583 113-271, looked up)
Interleukin-1 alpha: SAPFSFLSNVKYNFMRIIKYEFILNDALNQSIIRANDQYLTAAALHNLDEAVKFDMGAYKSSKDDAKITVILRISKTQLYVTAQDEDQPVLLKEMPEIPKTITGSETNLLFFWETHGTKNYFTSVAHPNLFIATKQDYWVCLAGGPPSITDFQILENQA
fluorescence intensity for SP ([2]; MSC treated with retinoic acid 6 days, stimulated with 10 ng/mL IL-1α for 16 hours, six experiments): bright fluorescence intensity
